Experimental data as given in patent publication US20230123334A1, “AMINO LIPID COMPOUND, PREPARATION METHOD THEREFOR, AND APPLICATION THEREOF” (SHENZHEN SHENXIN BIOTECHNOLOGY CO., LTD., priority 2020, published 2023).

Experiments:
[1] = tested on: HEK293 cells; experiment: Preliminary screening as DNA vectors, GFP transfection of HEK293 cells; format: cell-based; conditions: HEK293 cells; lipid/DOPE liposome with 75 ng plasmid DNA (psin-EGFP-IRES-Puro); number of cells expressing GFP divided by total number of nuclei (Hoechst)
Procedure, shortened: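 Lipid + DOPE liposomes (NaOAc, pH 5.6) complexed w/ 75 ng psin-EGFP-IRES-Puro, 30 min RT; added to 3-5×10^4 HEK293/well, 37° C. Hoechst 0.2 μg/mL at 20-24 h, imaged after further 20-24 h. Efficiency = GFP+ cells / total nuclei.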

[2] = tested on: HEK293 cells; experiment: Preliminary screening as mRNA vectors, EGFP mRNA transfection of HEK293 cells; format: cell-based; conditions: HEK293 cells, 96-well plates, EGFP mRNA 50 ng per well; percentage of GFP fluorescent cells relative to total number of cells (Hoechst)
Procedure, shortened: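 Each well of HEK293 cells received 50 ng of EGFP mRNA. Efficiency was expressed as percent GFP-expressing cells over Hoechst-defined total cell number.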

Row | Structure (SMILES) | Absolute DNA transfection efficiency in HEK293 cells [1] [%] | Absolute mRNA transfection efficiency in HEK293 cells [2] [%]
1 | CCCCCCCCCCCCCCCCCCNc1nc(NCCN2CCCC2)nc(N(CCCCCCCCCCCC)CCCCCCCCCCCC)n1 [N18^2N12D3] | 1.5 | 3.4
2 | CCCCCCNc1nc(NCCCCCC)nc(NCC2CCN(C)CC2)n1 [Compound N6N6D10] | 0.0 | 0.0
3 | CCCCCCCCCCCCCCCNc1nc(NCCCCCCC)nc(NCCCN2CCN(C)CC2)n1 [Compound N7N15D9] | 0.6 | 0.7
4 | CCCCCCCCCCCSc1nc(NCCCN2CCOCC2)nc(SCCCCCCCCCCC)n1 [Compound S11S11D8] | 3.6 | 1.4
5 | CCCCCCCCCCCCCCCCCCSc1nc(NCCN(C)C)nc(SCCCCCCCCCCC)n1 [Compound S11S18D1] | 0.6 | 2.7
6 | CCCCCCCCCCCCCCCCCCNc1nc(NCCCN2CCOCC2)nc(N(CCCCCCCCCCCC)CCCCCCCCCCCC)n1 [N18^2N12D8] | 0.4 | 2.3
7 | CCCCCCCCCCCCCCCSc1nc(NCC2CCN(C)CC2)nc(SCCCCCCCC)n1 [Compound S8S15D10] | 32.1 | 64.0
8 | CCCCCCCCCCCCCNc1nc(NCCCCCC)nc(NCCCN2CCN(C)CC2)n1 [Compound N6N13D9] | 0.0 | 0.0
9 | CCCCCCCCCCCCCCCCCCSc1nc(NCCCN(C)C)nc(SCCCCCCCCCCCC)n1 [Compound S12S18D6] | 1.0 | 0.1
10 | CCCCCCCCCCCCCCCCCCNc1nc(NCCCCCCCCCCCCCCCC)nc(NCC2CCN(C)CC2)n1 [Compound N16N18D10] | 3.0 | 1.8
11 | CCCCCCCCCCCCCCCNc1nc(NCCCCCCCC)nc(NCCN2CCOCC2)n1 [Compound N8N15D2] | 0.0 | 0.0
12 | CCCCCCCCCCCCN(CCCCCCCCCCCC)c1nc(NCCCCCC)nc(NCCN2CCCC2)n1 [N6^2N12D3] | 0.4 | 0.1
13 | CCCCCCCCCCCCCCCCCCNc1nc(NCCCCCC)nc(NCCCN2CCN(C)CC2)n1 [Compound N6N18D9] | 0.1 | 0.2
14 | CCCCCCCCCCCCCCCCCCSc1nc(NCCCN(C)C)nc(SCCCCCCCCCC)n1 [Compound S10S18D6] | 22.4 | 19.9
15 | CCCCCCCCCCCCCCCNc1nc(NCCCCCCCCCCCCCCC)nc(NCCN(C)C)n1 [Compound N15N15D1] | 2.3 | 0.0
16 | CCCCCCCCCCCCNc1nc(NCCN2CCCCC2)nc(N(CCCCCCCCCCCC)CCCCCCCCCCCC)n1 [N12^2N12D4] | 2.5 | 2.6
17 | CCCCCCCCCNc1nc(NCCCCCCC)nc(NCCN2CCN(C)CC2)n1 [Compound N7N9D5] | 0.0 | 0.2
18 | CCCCCCCCCCCCSc1nc(NCCN(CC)CC)nc(SCCCCCCCCCCC)n1 [Compound S11S12D7] | 3.1 | 0.4
19 | CCCCCCCCCCCCCCCCCCNc1nc(NCCCCCC)nc(NCCN2CCOCC2)n1 [Compound N6N18D2] | 0.6 | 0.9
20 | CCCCCCCCCCCCCCCCNc1nc(NCCCCCCCC)nc(NCCN(CC)CC)n1 [Compound N8N16D7] | 3.1 | 0.3
21 | CCCCCCCCCCCSc1nc(NCCCN2CCN(C)CC2)nc(SCCCCCCCCC)n1 [Compound S9S11D9] | 8.5 | 49.7
22 | CCCCCCCCCCCCCCCCSc1nc(NCCN2CCCCC2)nc(SCCCCCCCCCCCC)n1 [Compound S12S16D4] | 3.3 | 6.3
23 | CCCCCCCCCCCCNc1nc(NCCCCCCCCCCCC)nc(NCCN2CCCC2)n1 [Compound N12N12D3] | 1.9 | 3.8
24 | CCCCCCCCNc1nc(NCCCCCCC)nc(NCCN2CCOCC2)n1 [Compound N7N8D2] | 0.0 | 0.3
